{"source": "patent US20220081435A1", "about": "“ANDROGEN RECEPTOR PROTEIN DEGRADERS” (THE REGENTS OF THE UNIVERSITY OF MICHIGAN, priority 2019, published 2022)", "key": {"[1]": {"test_system": "AR-amplified prostate cancer cells", "details": "cited from earlier work"}, "VHL-ElonginBC complex": {"target": "T1, VHL-ElonginBC complex (Homo sapiens, UniProt P40337)", "T1 construct": "His-TEV (cleaved yes); made in house; host or cells: E. coli BL21(DE3)", "assay": "Fluorescence-polarization competitive binding assay for VHL protein", "method": "Cloning and Purification of VHL-ElonginBC complex. […] The cells were induced overnight with 0.4 mM IPTG at 24° C. […] The cell suspension was lysed by sonication and debris removed via centrifugation. […] The protein complex was eluted in 20 mM Tris-HCl pH 7.0, 200 mM NaCl and 300 mM Imidazole, dialyzed into 20 mM Tris-HCl pH 7.0, 150 mM NaCl, and 0.01% bME and incubated with TEV protease overnight at 4° C. […] The flow through containing the VHL complex was diluted to 75 mM NaCl and applied to a HiTrap Q column (GE Healthcare). The sample was eluted with a salt gradient (0.075-1 M NaCl), concentrated and further purified on a Superdex S75 column (GE Healthcare) pre-equilibrated with 20 mM Bis-Tris 7.0, 150 mM NaCl and 1 mM DTT. Samples were aliquoted and stored at −80° C.\nThe IC50 and Ki values of compounds were determined in competitive binding experiments. […] IC50 values were determined by nonlinear regression fitting of the competition curves. Ki values of competitive inhibitors were obtained directly by nonlinear regression fitting, based upon the KD values of the probe and concentrations of the protein and probe in the competitive assays. All the FP competitive experiments were performed in duplicate in three independent experiments."}}}
{"smiles": "Cc1ncsc1-c1ccc(CNC(=O)[C@@H]2C[C@@H](O)CN2C(=O)[C@@H](NC(=O)COCCCCOc2ccc(-c3ccc(N4C(=S)N(c5ccc(C#N)c(C(F)(F)F)c5)C(=O)C4(C)C)cc3)cc2)C(C)(C)C)cc1", "note": "[ARCC-4, (4R)-1-((S)-2-(2-(4-((4′-(3-(4-cyano-3-(trifluoromethyl)phenyl)-5,5-dimethyl-4-oxo-2-thioxoimidazolidin-1-yl)-[1,1′-biphenyl]-4-yl)oxy)butoxy)acetamido)-3,3-dimethylbutanoyl)-4-hydroxy-N-(4-(4-methylthiazol-5-yl)benzyl)pyrrolidine-2-carboxamide]", "values": [{"measurement": "Inducing apoptosis and inhibiting proliferation, compared with enzalutamide", "setting": "[1]", "value": "more potent and effective than enzalutamide"}]}
{"smiles": "Cc1cc([C@H](C(=O)N2C[C@H](O)C[C@H]2C(=O)N[C@@H](CC(=O)NCCOCCOCCOCCNC(=O)c2ccc3c(c2)C(=O)OC32c3ccc(O)cc3Oc3cc(O)ccc32)c2ccc(-c3scnc3C)cc2)C(C)C)on1", "note": "[HXC78, (2S,4R)—N—((S)-1-(3′,6′-dihydroxy-3-oxo-3H-spiro[isobenzofuran-1,9′-xanthen]-5-yl)-17-(4-(4-methylthiazol-5-yl)phenyl)-1,15-dioxo-5,8,11-trioxa-2,14-diazaheptadecan-17-yl)-4-hydroxy-1-((R)-3-methyl-2-(3-methylisoxazol-5-yl)butanoyl)pyrrolidine-2-carboxamide, reference compound]", "values": [{"measurement": "Kd", "setting": "VHL-ElonginBC complex; tracer binding to VHL complex (VHL, Elongin B, Elongin C)", "value": 2.4, "unit": "nM"}]}
{"smiles": "CC(=O)N[C@H](C(=O)N1C[C@H](O)C[C@H]1C(=O)N[C@@H](C)c1ccc(-c2scnc2C)cc1)C(C)(C)C", "note": "[VHL-b, (2S,4R)-1-((S)-2-acetamido-3,3-dimethylbutanoyl)-4-hydroxy-N—((S)-1-(4-(4-methylthiazol-5-yl)phenyl)ethyl)pyrrolidine-2-carboxamide]", "values": [{"measurement": "IC50", "setting": "VHL-ElonginBC complex; FP competition, VHL protein and fluorescent probe both 5 nM", "value": "164 ± 13", "unit": "nM"}]}
